Eight molecules from publication PMC12446476 (Nature Communications, 2025) can be followed below.

Series [1] deals with Salmonella typhimurium (TA1535, TA1537, TA98 and TA100). The class given is cell-based. The method, then: Ames assays were performed using four strains of Salmonella typhimurium (TA1535, TA1537, TA98 and TA100) and a single strain of E. coli (WRP2 uvrA) in the presence and absence of S9 tissue homogenate. Dose levels (µg/plate) up to 4000 were assessed for WP2 uvrA and TA98, 500 for TA1535, 250 for TA1537 and 62.5 for TA100.

Series [2] has as its system intracellular N. gonorrhoeae. Put plainly: Intracellular killing in HeLa229 cells. Conditions: dilution 0, replicates 1-3, counts 1-2. The class given is cell-based, Neisseria gonorrhoeae. The protocol: Intracellular killing was assessed within HeLa229 cells (European Collection of Authenticated Cell Cultures, London, UK) that were seeded at ~3 × 10^5 cells/mL and grown to 70–80% confluence in RPMI-glutamine media supplemented with 10% (v/v) heat-inactivated fetal bovine serum (FBS, Gibco, MA, USA). Cells were incubated at 37 °C with 5% CO2 for 24 h, then washed with serum-free RPMI-1640 prior to infection. N. gonorrhoeae was scraped from agar plates and resuspended in Dulbecco’s Phosphate Buffered Saline (DPBS, Sigma-Aldrich), pelleted, then resuspended in RPMI with 2% FBS. Bacterial suspensions were used to infect HeLa229 cells at a multiplicity of infection of 100:1. Plates were briefly centrifuged (500 × g for 5 min), then incubated for one hour. This incubation and all subsequent incubations were performed at 37 °C with 5% CO2. Non-adherent cells were removed by washing with serum-free RPMI, and the remaining extracellular bacteria were killed via resuspension in RPMI-glutamine supplemented with 2% FBS and 200 μg/mL gentamycin and incubation for one hour. […] Azithromycin-treated samples were included for control/comparison. […] Samples were diluted and plated onto chocolate II agar for viable bacteria quantification. Intracellular killing assays were performed at Microbiologics, Kalamazoo, MI, USA, using a method adapted from previous studies[68],[69].

For the next series, the system named is N. gonorrhoeae. Put plainly: MIC determination, agar dilution (CLSI). Format: cell-based, Neisseria gonorrhoeae. An excerpt: The 2024 WHO N. gonorrhoeae reference strains were used for quality control. Only whole MIC doubling dilutions are reported. Clinical breakpoints or the epidemiological cutoff (ECOFF, to indicate azithromycin resistance) from EUCAST (v14.0, https://www.eucast.org/clinical_breakpoints) were used to classify isolates as antimicrobial susceptible or resistant. […] Two times the standard inoculum defined by CLSI was used to establish consistent growth in untreated control samples for some strains. In vitro time-kill assays were performed according to CLSI guidelines[65] using Columbia Broth (BD Difco) supplemented with 1% IsoVitaleX Enrichment (BD). Viable bacterial counts were generated by plating 10-fold serially diluted samples on GC agar plates containing 1% IsoVitaleX Enrichment (BD).
A general note: Agar dilution tests growth on a series of plates holding different concentrations.

[3] abbreviates: TA98, without S9, positive control 2 µg/plate.
[4] abbreviates: TA1537, without S9, positive control 50 µg/plate.
Setting [5] is: screening panel N. gonorrhoeae isolate A.
Where [6] appears, read: screening panel N. gonorrhoeae isolate B.
Where [7] appears, read: screening panel N. gonorrhoeae isolate C.
[8] abbreviates: screening panel N. gonorrhoeae isolate D.
Where [9] appears, read: screening panel N. gonorrhoeae isolate E.
The mark [10] stands for this setting: screening panel N. gonorrhoeae isolate F.
[11] abbreviates: screening panel N. gonorrhoeae isolate G.
The mark [12] stands for this setting: screening panel N. gonorrhoeae isolate H.
Setting [13] is: screening panel N. gonorrhoeae isolate I.
[14] abbreviates: screening panel N. gonorrhoeae isolate J.
Setting [15] is: screening panel N. gonorrhoeae isolate K.
Setting [16] is: screening panel N. gonorrhoeae isolate L.
[17] abbreviates: screening panel N. gonorrhoeae isolate M.
Setting [18] is: screening panel N. gonorrhoeae isolate N.
Where [19] appears, read: TA100, without S9, positive control 1 µg/plate.
The mark [20] stands for this setting: TA1535, without S9, positive control 1 µg/plate.

Molecules are shown by their SMILES. In brackets after ≈: the same amount, converted by molar mass. Several values for one entry are separate records, joined by “and”; a condition that tells them apart may be missing. Equal entries are not always repeated. Where two headings read alike, the source gives them in different places.

Regarding `O=[N+]([O-])c1ccc2c(c1)Cc1ccccc1-2` [2-Nitrofluorene, reference compound], in series [1] (setting [3]), the “Ames bacterial mutation assessment, Mean” value was found to be 173; the Colony count was 177 and 172 and 169.
With `Nc1c2ccccc2nc2ccccc12` [9-Aminoacridine, reference compound], in series [1] (setting [4]), the “Ames bacterial mutation assessment, Mean” value is 142; the Colony count is 128 and 153 and 146.
On to `CC[C@H]1OC(=O)[C@H](C)[C@@H](O[C@H]2C[C@@](C)(OC)[C@@H](O)[C@H](C)O2)[C@H](C)[C@@H](O[C@@H]2O[C@H](C)C[C@H](N(C)C)[C@H]2O)[C@](C)(O)C[C@@H](C)CN(C)[C@H](C)[C@@H](O)[C@]1(C)O` [Azithryomycin], for which the “Colony forming units (CFU) of N. gonorrhoeae internalised in HeLa229 cells, colony count” value (“Colony forming units (CFU)” below) was 19 CFU (2×) and 22 CFU and 27 CFU and 29 CFU and 32 CFU in series [2] (isolate ATCC 49226, 3 hr, 2X MIC); 28 CFU and 29 CFU and 24 CFU (2×) and 32 CFU and 22 CFU in series [2] (isolate ATCC 49226, 3 hr, 4X MIC); 20 CFU and 26 CFU and 27 CFU and 18 CFU and 28 CFU and 17 CFU in series [2] (isolate ATCC 49226, 3 hr, 8X MIC); 1 CFU (3×) and 3 CFU and 2 CFU (2×) in series [2] (isolate ATCC 49226, 6 hr, 2X MIC); 0 CFU (2×) and 1 CFU and 3 CFU (2×) and 5 CFU in series [2] (isolate ATCC 49226, 6 hr, 4X MIC); 1 CFU (3×) and 2 CFU (3×) in series [2] (isolate ATCC 49226, 6 hr, 8X MIC). In addition, the “Colony forming units (CFU)” value stood at 0 CFU in series [2] (isolate ATCC 49226, 10 hr, 2X MIC); 0 CFU in series [2] (isolate ATCC 49226, 10 hr, 4X MIC); 0 CFU in series [2] (isolate ATCC 49226, 10 hr, 8X MIC); 0 CFU in series [2] (isolate ATCC 49226, 24 hr, 2X MIC); 0 CFU in series [2] (isolate ATCC 49226, 24 hr, 4X MIC); 0 CFU in series [2] (isolate ATCC 49226, 24 hr, 8X MIC). The “Colony forming units (CFU)” value in series [2] (isolate NCTC 13820, 3 hr, 2X MIC) was 12 CFU and 15 CFU and 33 CFU and 32 CFU and 27 CFU and 29 CFU; in series [2] (isolate NCTC 13820, 3 hr, 4X MIC), 21 CFU and 16 CFU and 33 CFU and 30 CFU and 20 CFU and 27 CFU; in series [2] (isolate NCTC 13820, 3 hr, 8X MIC), 20 CFU and 13 CFU and 26 CFU and 30 CFU (2×) and 21 CFU; in series [2] (isolate NCTC 13820, 6 hr, 2X MIC), 0 CFU (2×) and 1 CFU (2×) and 3 CFU (2×); in series [2] (isolate NCTC 13820, 6 hr, 4X MIC) it was 0 CFU (2×) and 1 CFU and 3 CFU.
In the case of `O=C1CCNc2cc(C=CC(=O)N3CC4C=C(c5ccccc5)CC4C3)cnc2N1` (stereo not drawn) [Compound 3], the Minimum inhibitory concentration with N. gonorrhoeae (setting [5]) was found to be 4 µg/mL (≈ 9.99 µM); with N. gonorrhoeae (setting [6]), 2 µg/mL (≈ 4.99 µM); in the series on N. gonorrhoeae (setting [7]), 1 µg/mL (≈ 2.5 µM); in the series with N. gonorrhoeae (setting [8]), 2 µg/mL (≈ 4.99 µM); in the series with N. gonorrhoeae (setting [9]) it was 1 µg/mL (≈ 2.5 µM); with N. gonorrhoeae (setting [10]) it was 4 µg/mL (≈ 9.99 µM). Further, the Minimum inhibitory concentration with N. gonorrhoeae (setting [11]) is recorded as 4 µg/mL (≈ 9.99 µM); with N. gonorrhoeae (setting [12]) it was 4 µg/mL (≈ 9.99 µM); in the series with N. gonorrhoeae (setting [13]), 2 µg/mL (≈ 4.99 µM); in the series with N. gonorrhoeae (setting [14]), 2 µg/mL (≈ 4.99 µM); in the series on N. gonorrhoeae (setting [15]), over 8 µg/mL; in the series with N. gonorrhoeae (setting [16]), 2 µg/mL (≈ 4.99 µM). Moreover, the values for the Minimum inhibitory concentration in the series with N. gonorrhoeae (setting [17]) and in the series with N. gonorrhoeae (setting [18]) were 2 µg/mL (≈ 4.99 µM) and 1 µg/mL (≈ 2.5 µM), respectively.
On to `O=C1CCNc2cc(/C=C/C(=O)N3CCC=C(c4ccccc4)CC3)cnc2N1` [Compound 4], for which the Minimum inhibitory concentration in the series with N. gonorrhoeae (setting [5]) amounted to 4 µg/mL (≈ 10.3 µM); with N. gonorrhoeae (setting [6]) it was 2 µg/mL (≈ 5.15 µM); in the series with N. gonorrhoeae (setting [7]), 2 µg/mL (≈ 5.15 µM); with N. gonorrhoeae (setting [8]), 2 µg/mL (≈ 5.15 µM); in the series with N. gonorrhoeae (setting [9]), 1 µg/mL (≈ 2.57 µM); with N. gonorrhoeae (setting [10]), 4 µg/mL (≈ 10.3 µM). Moreover, the Minimum inhibitory concentration came out at 4 µg/mL (≈ 10.3 µM) with N. gonorrhoeae (setting [11]); 4 µg/mL (≈ 10.3 µM) with N. gonorrhoeae (setting [12]); 2 µg/mL (≈ 5.15 µM) in the series with N. gonorrhoeae (setting [13]); 2 µg/mL (≈ 5.15 µM) in the series with N. gonorrhoeae (setting [14]); 4 µg/mL (≈ 10.3 µM) in the series with N. gonorrhoeae (setting [15]); 2 µg/mL (≈ 5.15 µM) with N. gonorrhoeae (setting [16]). Moreover, the Minimum inhibitory concentration was found to be 2 µg/mL (≈ 5.15 µM) with N. gonorrhoeae (setting [17]) and 1 µg/mL (≈ 2.57 µM) in the series on N. gonorrhoeae (setting [18]).
`Cc1oc2ccccc2c1CN(C)C(=O)/C=C/c1cnc2c(c1)NCCC(=O)N2` [Compound 5]: the Minimum inhibitory concentration in the series with N. gonorrhoeae (setting [5]) was 1 µg/mL (≈ 2.56 µM); with N. gonorrhoeae (setting [6]), 1 µg/mL (≈ 2.56 µM); in the series on N. gonorrhoeae (setting [7]), 1 µg/mL (≈ 2.56 µM); in the series on N. gonorrhoeae (setting [8]), 1 µg/mL (≈ 2.56 µM); in the series on N. gonorrhoeae (setting [9]), 0.5 µg/mL (≈ 1.28 µM); in the series with N. gonorrhoeae (setting [10]) it was 2 µg/mL (≈ 5.12 µM). The Minimum inhibitory concentration worked out at 2 µg/mL (≈ 5.12 µM) in the series on N. gonorrhoeae (setting [11]); 2 µg/mL (≈ 5.12 µM) in the series with N. gonorrhoeae (setting [12]); 0.5 µg/mL (≈ 1.28 µM) with N. gonorrhoeae (setting [13]); 1 µg/mL (≈ 2.56 µM) with N. gonorrhoeae (setting [14]); 2 µg/mL (≈ 5.12 µM) in the series on N. gonorrhoeae (setting [15]); 1 µg/mL (≈ 2.56 µM) in the series with N. gonorrhoeae (setting [16]). In addition, the Minimum inhibitory concentration is given as 1 µg/mL (≈ 2.56 µM) in the series on N. gonorrhoeae (setting [17]) and 0.5 µg/mL (≈ 1.28 µM) with N. gonorrhoeae (setting [18]).
Consider `Cc1c(CN(C)C(=O)/C=C/c2cnc3c(c2)N[C@@H](C)[C@@H](O)C(=O)N3)oc2ccccc12` [Compound 9], for which the Minimum inhibitory concentration with N. gonorrhoeae (setting [5]) is on record as 2 µg/mL (≈ 4.76 µM); in the series on N. gonorrhoeae (setting [6]) it was 1 µg/mL (≈ 2.38 µM); in the series on N. gonorrhoeae (setting [7]) it was 1 µg/mL (≈ 2.38 µM); in the series on N. gonorrhoeae (setting [8]) it was 1 µg/mL (≈ 2.38 µM); in the series on N. gonorrhoeae (setting [9]), at most 0.5 µg/mL; with N. gonorrhoeae (setting [10]) it was 2 µg/mL (≈ 4.76 µM). The Minimum inhibitory concentration stood at 2 µg/mL (≈ 4.76 µM) in the series with N. gonorrhoeae (setting [11]); 2 µg/mL (≈ 4.76 µM) in the series with N. gonorrhoeae (setting [12]); 1 µg/mL (≈ 2.38 µM) with N. gonorrhoeae (setting [13]); 1 µg/mL (≈ 2.38 µM) in the series with N. gonorrhoeae (setting [14]); 2 µg/mL (≈ 4.76 µM) with N. gonorrhoeae (setting [15]); 1 µg/mL (≈ 2.38 µM) in the series with N. gonorrhoeae (setting [16]). Also, the Minimum inhibitory concentration with N. gonorrhoeae (setting [17]) and in the series with N. gonorrhoeae (setting [18]) was 1 µg/mL (≈ 2.38 µM) in each case.
Regarding `[N-]=[N+]=[N-].[Na+]` [Sodium azide, reference compound], the “Ames bacterial mutation assessment, Mean” value came out at 555 in series [1] (setting [19]) and 433 in series [1] (setting [20]). Besides, the Colony count was 508 and 554 and 602 in series [1] (setting [19]); 428 and 408 and 464 in series [1] (setting [20]).
